What is called EC50 is the concentration that produces a half-maximal response. The inhibition is how much of the control response was suppressed. A higher inhibition goes with a strong effect. A word on the Papp A→B: it is how fast a substance crosses the layer from the apical side. In general, half-life refers to the time in which the quantity being followed falls by half. Broadly, the Tmax is the time at which the peak concentration occurs. For orientation: IC50 means the concentration that gives 50% inhibition. High values mean a need for much substance, low ones inhibition by little substance. A word on the Cmax: it is the maximum level reached in the sampled fluid or tissue. One may read the AUC(0-t) as exposure summed from dosing to a finite time, without extrapolation to infinity. A higher AUC(0-t) goes with more exposure.

We go through one molecule from ChEMBL document CHEMBL5338823, “Discovery of Novel 5,6-Dihydro-1,2,4-triazine Derivatives as Efficacious Glucagon-Like Peptide-1 Receptor Agonists” (J Med Chem, 2023).

SMILES strings stand for the structures. The source made the active and inactive calls. The calls are words filed in the database; no cut-off is given here.

Data set [1] in a line: Drug concentration in C57BL/6J mouse plasma at 5 mg/kg, po measured after 4 hrs by LC-MS/MS analysis. It is filed as ADME, organism-based.
Data set [2] has as its target T1, Glucagon-like peptide 1 receptor (Homo sapiens, UniProt P43220). Briefly: Partial agonist activity at N-terminal HA-tagged human GLP-1R expressed in HEK293 cells co-expressing Smbit-beta-arrestin 1/2 and GLP-1R-LgBit assessed as beta-arrestin-2 recruitment measured after 5 mins by bioluminescence based NanoBiT assay. It is filed as functional, cell-based. Background: Arrestin recruitment assays detect the binding of arrestin to an activated receptor.

Data set [3] deals with T1, Glucagon-like peptide 1 receptor. Put plainly: Agonist activity at N-terminal HA-tagged human GLP-1R expressed in HEK293 cells assessed as change in intracellular calcium level by Fluo-4 AM dye based calcium mobilization assay. The class given is functional, cell-based.
Data set [4] deals with T2, Glucagon-like peptide 2 receptor (Homo sapiens) (UniProt O95838).
T2 sequence (whole entry): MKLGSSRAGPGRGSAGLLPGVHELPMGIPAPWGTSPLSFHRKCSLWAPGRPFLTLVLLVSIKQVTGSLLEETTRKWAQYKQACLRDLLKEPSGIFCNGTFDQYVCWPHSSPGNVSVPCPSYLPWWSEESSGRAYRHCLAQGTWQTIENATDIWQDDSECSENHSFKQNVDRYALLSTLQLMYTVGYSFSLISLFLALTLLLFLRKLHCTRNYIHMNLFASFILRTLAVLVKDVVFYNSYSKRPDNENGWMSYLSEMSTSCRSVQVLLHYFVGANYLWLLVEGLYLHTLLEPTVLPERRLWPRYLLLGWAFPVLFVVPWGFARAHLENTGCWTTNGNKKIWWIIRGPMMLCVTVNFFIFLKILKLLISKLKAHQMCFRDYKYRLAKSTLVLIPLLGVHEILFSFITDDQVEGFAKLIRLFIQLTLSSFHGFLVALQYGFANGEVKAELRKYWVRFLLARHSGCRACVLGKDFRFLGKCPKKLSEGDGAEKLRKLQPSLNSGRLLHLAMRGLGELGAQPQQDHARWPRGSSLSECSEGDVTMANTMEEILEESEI
Briefly: Agonist activity at GLP-2R (unknown origin) expressed in HEK293 cells assessed as effect on intracellular cAMP accumulation incubated for 30 mins by LANCA ultra cAMP assay. It is filed as functional, cell-based.

A further data set deals with hERG (KCNH2) (Homo sapiens, UniProt Q12809). Briefly: Inhibition of hERG at 40 uM relative to control.
hERG (KCNH2), sequence (Q12809 whole entry): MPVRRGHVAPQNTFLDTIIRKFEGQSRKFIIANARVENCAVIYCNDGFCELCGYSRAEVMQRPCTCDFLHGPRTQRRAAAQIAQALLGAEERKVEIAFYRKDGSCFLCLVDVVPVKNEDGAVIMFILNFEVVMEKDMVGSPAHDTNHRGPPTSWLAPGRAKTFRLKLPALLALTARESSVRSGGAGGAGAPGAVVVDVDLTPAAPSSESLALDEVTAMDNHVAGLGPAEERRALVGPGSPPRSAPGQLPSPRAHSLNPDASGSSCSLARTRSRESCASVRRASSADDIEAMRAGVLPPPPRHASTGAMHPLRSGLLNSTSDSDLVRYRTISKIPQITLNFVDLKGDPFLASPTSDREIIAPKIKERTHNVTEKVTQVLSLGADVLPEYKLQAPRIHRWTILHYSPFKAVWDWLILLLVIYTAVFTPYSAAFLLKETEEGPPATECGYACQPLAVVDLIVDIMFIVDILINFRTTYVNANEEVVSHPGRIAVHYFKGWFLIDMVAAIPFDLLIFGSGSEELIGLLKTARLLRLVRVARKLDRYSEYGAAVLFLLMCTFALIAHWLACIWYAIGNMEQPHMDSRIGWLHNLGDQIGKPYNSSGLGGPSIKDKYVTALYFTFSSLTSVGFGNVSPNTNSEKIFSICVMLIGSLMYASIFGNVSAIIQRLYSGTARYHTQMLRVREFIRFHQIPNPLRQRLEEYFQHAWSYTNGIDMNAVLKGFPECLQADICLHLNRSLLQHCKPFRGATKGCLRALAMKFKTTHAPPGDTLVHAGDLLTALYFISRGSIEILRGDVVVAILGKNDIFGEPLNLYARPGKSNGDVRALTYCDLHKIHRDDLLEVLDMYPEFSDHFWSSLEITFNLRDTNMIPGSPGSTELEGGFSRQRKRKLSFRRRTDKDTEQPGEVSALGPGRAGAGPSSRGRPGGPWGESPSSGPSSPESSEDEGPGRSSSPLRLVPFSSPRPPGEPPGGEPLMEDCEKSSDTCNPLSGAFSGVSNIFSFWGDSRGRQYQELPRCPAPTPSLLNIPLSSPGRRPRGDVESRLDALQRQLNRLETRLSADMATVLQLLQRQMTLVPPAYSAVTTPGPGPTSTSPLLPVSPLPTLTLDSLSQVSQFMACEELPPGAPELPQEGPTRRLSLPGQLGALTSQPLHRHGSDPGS
Data set [5] can be described thus: Apparent permeability across apical to basolateral side in human Caco-2 cells at 10 uM measured after 95 mins by LC-MS/MS analysis. The class given is ADME, cell-based.
Data set [6] in a line: Stability in rat liver microsomes assessed as half-life at 1 uM measured upto 60 mins in the presence of NADPH by LC-MS/MS analysis. It is filed as ADME, Microsome.
In data set [7] the target is T3, Glucagon-like peptide 1 receptor (Mus musculus) (UniProt O35659).
T3 sequence (whole entry): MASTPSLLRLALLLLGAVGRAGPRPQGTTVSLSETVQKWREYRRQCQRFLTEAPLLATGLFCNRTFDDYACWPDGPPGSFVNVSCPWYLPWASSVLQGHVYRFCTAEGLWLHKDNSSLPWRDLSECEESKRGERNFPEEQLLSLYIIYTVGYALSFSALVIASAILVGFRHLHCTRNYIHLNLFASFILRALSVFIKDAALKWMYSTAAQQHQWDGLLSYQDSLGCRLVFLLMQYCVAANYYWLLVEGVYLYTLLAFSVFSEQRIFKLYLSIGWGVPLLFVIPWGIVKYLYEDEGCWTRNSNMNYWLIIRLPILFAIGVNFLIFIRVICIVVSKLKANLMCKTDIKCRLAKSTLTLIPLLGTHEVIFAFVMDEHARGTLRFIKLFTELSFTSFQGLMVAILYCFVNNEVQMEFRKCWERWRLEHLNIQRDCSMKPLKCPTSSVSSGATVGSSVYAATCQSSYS
Put plainly: Activation of mouse GLP-1R.

Data set [8] in a line: Stability in human liver microsomes assessed as half-life at 1 uM measured upto 60 mins in the presence of NADPH by LC-MS/MS analysis. It is filed as ADME, Microsome.
The target of data set [9] is T4, Gastric inhibitory polypeptide receptor (Homo sapiens) (UniProt P48546).
T4 sequence (whole entry): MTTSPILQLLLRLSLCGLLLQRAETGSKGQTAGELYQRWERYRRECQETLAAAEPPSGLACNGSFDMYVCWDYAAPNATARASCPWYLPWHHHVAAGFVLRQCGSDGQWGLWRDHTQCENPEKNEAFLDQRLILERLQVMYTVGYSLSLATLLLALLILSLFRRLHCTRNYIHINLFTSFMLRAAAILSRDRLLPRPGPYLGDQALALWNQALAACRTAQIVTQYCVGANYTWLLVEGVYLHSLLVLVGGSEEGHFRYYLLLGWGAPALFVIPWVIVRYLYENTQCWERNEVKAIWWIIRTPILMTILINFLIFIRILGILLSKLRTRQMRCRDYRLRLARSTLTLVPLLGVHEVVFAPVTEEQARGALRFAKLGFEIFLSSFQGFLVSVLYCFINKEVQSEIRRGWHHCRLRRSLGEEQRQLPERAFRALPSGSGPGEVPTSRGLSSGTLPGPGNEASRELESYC
Briefly: Agonist activity at GIPR (unknown origin) expressed in HEK293 cells assessed as effect on intracellular cAMP accumulation incubated for 30 mins by LANCA ultra cAMP assay. It is filed as functional, cell-based. (Changes in cAMP serve as a functional read-out for many G protein-coupled receptors.)

Data set [10] is described as follows: Tmax in Sprague-Dawley rat at 5 mg/kg, po measured upto 24 hrs by LC-MS/MS analysis. It is filed as ADME, organism-based. The note with it: in vivo.
Data set [11] concerns the target T1, Glucagon-like peptide 1 receptor. Put plainly: Partial agonist activity at N-terminal HA-tagged human GLP-1R expressed in HEK293 cells co-expressing Smbit-beta-arrestin 1/2 and GLP-1R-LgBit assessed as beta-arrestin-1 recruitment measured after 5 mins by bioluminescence based NanoBiT assay. It is filed as functional, cell-based.
The target is the same in data set [12]. Briefly: Potency index, ratio of danuglipron EC50 to test compound EC50 for partial agonist activity at N-terminal HA-tagged human GLP-1R expressed in HEK293 cells co-expressing Smbit-beta-arrestin 1/2 and GLP-1R-LgBit assessed as beta-arrestin-1 recruitment measured after 5 mins by bioluminescence based NanoBiT assay. The class given is functional, cell-based.

Data set [13] addresses Voltage-gated inwardly rectifying potassium channel KCNH2 (Homo sapiens, UniProt Q12809). Put plainly: Inhibition of hERG.
Data set [14] is described as follows: Stability in mouse liver microsomes assessed as intrinsic clearance at 1 uM measured upto 60 mins in the presence of NADPH by LC-MS/MS analysis. The conditions noted are these: 1 h. It is filed as ADME, Microsome. Background: Liver microsomes are vesicles of endoplasmic reticulum, rich in cytochrome P450 enzymes.
Data set [15] addresses T1, Glucagon-like peptide 1 receptor. Briefly: Agonist activity at N-terminal HA-tagged human GLP-1R expressed in HEK293 cells assessed as effect on intracellular cAMP accumulation incubated for 30 mins by LANCA ultra cAMP assay. The class given is functional, cell-based.
Data set [16] is described as follows: Stability in mouse liver microsomes assessed as half-life at 1 uM measured upto 60 mins in the presence of NADPH by LC-MS/MS analysis. The class given is ADME, Microsome.
Data set [17] can be described thus: Cmax in Sprague-Dawley rat at 5 mg/kg, po measured upto 24 hrs by LC-MS/MS analysis. The class given is ADME, organism-based. Further details: time < 24 hrs, dose 5 mg/kg, route po. The conditions noted are these: in vivo.
Data set [18] can be described thus: AUClast in Sprague-Dawley rat at 5 mg/kg, po measured upto 24 hrs by LC-MS/MS analysis. The class given is ADME, organism-based. Further details: dose 5 mg/kg, time < 24 hrs, route po. The note with it: in vivo.
Data set [19] concerns the target Glucagon receptor (Homo sapiens) (UniProt P47871). Briefly: Agonist activity at GCGR (unknown origin) expressed in HEK293 cells assessed as effect on intracellular cAMP accumulation incubated for 30 mins by LANCA ultra cAMP assay. The class given is functional, cell-based.

T1 sequence (P43220 whole entry): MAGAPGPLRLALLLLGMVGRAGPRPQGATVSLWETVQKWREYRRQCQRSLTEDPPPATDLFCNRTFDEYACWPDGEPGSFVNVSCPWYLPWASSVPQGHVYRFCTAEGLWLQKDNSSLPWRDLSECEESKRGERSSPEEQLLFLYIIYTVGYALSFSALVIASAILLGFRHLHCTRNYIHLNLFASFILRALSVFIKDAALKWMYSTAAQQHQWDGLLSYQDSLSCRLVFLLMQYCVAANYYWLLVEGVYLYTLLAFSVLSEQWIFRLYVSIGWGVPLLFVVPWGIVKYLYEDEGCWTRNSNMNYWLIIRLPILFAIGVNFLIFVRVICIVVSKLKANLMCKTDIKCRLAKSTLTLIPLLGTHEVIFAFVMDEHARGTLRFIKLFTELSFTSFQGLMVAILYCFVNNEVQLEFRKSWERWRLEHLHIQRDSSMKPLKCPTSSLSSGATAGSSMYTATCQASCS
Glucagon receptor (Homo sapiens), sequence (P47871 whole entry): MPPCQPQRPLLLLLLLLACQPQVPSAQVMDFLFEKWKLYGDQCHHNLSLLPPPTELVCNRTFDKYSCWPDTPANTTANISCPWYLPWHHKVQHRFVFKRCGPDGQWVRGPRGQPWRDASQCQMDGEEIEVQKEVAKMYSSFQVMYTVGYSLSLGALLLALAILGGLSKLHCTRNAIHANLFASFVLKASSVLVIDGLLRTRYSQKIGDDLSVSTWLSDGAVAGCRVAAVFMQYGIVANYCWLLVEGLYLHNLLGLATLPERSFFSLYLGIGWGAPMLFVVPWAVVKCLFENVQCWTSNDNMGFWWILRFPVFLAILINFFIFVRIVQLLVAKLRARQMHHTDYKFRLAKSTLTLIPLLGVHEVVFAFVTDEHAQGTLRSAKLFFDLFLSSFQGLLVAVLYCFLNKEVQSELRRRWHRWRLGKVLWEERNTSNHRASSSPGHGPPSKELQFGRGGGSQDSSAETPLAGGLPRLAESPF
Voltage-gated inwardly rectifying potassium channel KCNH2, sequence (Q12809 whole entry): as the sequence (Q12809 whole entry) above

In the case of `COc1cc(C(F)(F)F)ccc1COc1cccc(N2C=NN(Cc3nc4c(F)cc(C(=O)O)cc4n3C[C@@H]3CCO3)CC2)n1`, the concentration at 4 h in data set [1] worked out at 35 ng/mL. Besides, the concentration giving a half-maximal response (EC50) in data set [2] came out at 136 nM; in data set [3], 168 nM; in data set [11], 175 nM; in data set [15], 0.006 nM. Moreover, the result in [4], in [7], in data set [9] and in [19] was inactive. Moreover, the inhibition at 40 µM against hERG (KCNH2) worked out at 20%. For the same molecule, in [5], the Papp A→B at 1.583 h, 10 µM was 0.57 ×10⁻⁶ cm/s. Moreover, the half-life at 1 µM in data set [6] is 1.25 h; in data set [8], 2.87 h; in data set [16], 1.28 h. Also, in data set [10], the Tmax was 0.25 h. The Ratio EC50 in [12] amounted to 10. This molecule yielded an IC50 in data set [13] greater than 40000 nM. Further, in data set [14], the CLH amounted to 27 mL/min/g. Further, the Cmax in data set [17] worked out at 130 ng/mL. The molecule also came in with an AUC(0-t) at 24 h in [18] of 70 ng·h/mL.
